Laboratory results reported in US11427553B2, “Dihydrooxadiazinones” (Bayer Aktiengesellschaft, priority 2017, dated 2022).

How the values were obtained:
HeLa cells = experiment: Assay 1 cell proliferation measurement (CTG, 72 h), HeLa; format: cell-based, human; details: Homo sapiens, HeLa; Assay 1, 72 h, Cell Titer Glo; read-out: HeLa IC50 [nM] (Cervical cancer)
How it was run: (§1)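 Growth inhibition relative to a 0 h baseline plate and 0.3% DMSO control, with IC50 fitted by 4-parameter curve. Compound exposure lasted 72 h at 37 °C across a 2.5-fold, 10-step series starting generally at 100 nM final.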

SK-MEL-3 cells = experiment: Assay 1 cell proliferation measurement (CTG, 72 h), SK-MEL-3; format: cell-based, human; details: Homo sapiens, SK-MEL3; Assay 1, 72 h, Cell Titer Glo; read-out: SK-MEL-3 IC50 [nM] (melanoma)
How it was run: as §1

human full length PDE3B = human full length PDE3B (Homo sapiens (Human), UniProt Q13370); experiment: Assay 5 PDE3B enzyme inhibition (3H-cAMP SPA); format: biochemical; details: Sf9 cell extract
How it was run: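 Sf9 cell extract expressing human full-length PDE3B, diluted for linear kinetics (<70% substrate use), in 50 mM Tris/HCl pH 7.5, 8.3 mM MgCl2, 1.7 mM EDTA. [8-3H]cAMP substrate, 60 min at room temperature; stopped with yttrium SPA beads, scintillation counting. IC50 from sigmoidal activity vs log concentration curves.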

human full length PDE3A = human full length PDE3A (Homo sapiens (Human), UniProt Q14432); experiment: Assay 4 PDE3A enzyme inhibition (3H-cAMP SPA); format: biochemical; details: Sf9 cell extract
How it was run: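 In this SPA format, the 60-min room-temperature reaction used 0.025 μCi [8-3H]cAMP and diluted full-length PDE3A from Sf9 cells. Percentage activity was plotted against log compound concentration to derive IC50.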

human full length PDE3B, sequence (Q13370 whole entry): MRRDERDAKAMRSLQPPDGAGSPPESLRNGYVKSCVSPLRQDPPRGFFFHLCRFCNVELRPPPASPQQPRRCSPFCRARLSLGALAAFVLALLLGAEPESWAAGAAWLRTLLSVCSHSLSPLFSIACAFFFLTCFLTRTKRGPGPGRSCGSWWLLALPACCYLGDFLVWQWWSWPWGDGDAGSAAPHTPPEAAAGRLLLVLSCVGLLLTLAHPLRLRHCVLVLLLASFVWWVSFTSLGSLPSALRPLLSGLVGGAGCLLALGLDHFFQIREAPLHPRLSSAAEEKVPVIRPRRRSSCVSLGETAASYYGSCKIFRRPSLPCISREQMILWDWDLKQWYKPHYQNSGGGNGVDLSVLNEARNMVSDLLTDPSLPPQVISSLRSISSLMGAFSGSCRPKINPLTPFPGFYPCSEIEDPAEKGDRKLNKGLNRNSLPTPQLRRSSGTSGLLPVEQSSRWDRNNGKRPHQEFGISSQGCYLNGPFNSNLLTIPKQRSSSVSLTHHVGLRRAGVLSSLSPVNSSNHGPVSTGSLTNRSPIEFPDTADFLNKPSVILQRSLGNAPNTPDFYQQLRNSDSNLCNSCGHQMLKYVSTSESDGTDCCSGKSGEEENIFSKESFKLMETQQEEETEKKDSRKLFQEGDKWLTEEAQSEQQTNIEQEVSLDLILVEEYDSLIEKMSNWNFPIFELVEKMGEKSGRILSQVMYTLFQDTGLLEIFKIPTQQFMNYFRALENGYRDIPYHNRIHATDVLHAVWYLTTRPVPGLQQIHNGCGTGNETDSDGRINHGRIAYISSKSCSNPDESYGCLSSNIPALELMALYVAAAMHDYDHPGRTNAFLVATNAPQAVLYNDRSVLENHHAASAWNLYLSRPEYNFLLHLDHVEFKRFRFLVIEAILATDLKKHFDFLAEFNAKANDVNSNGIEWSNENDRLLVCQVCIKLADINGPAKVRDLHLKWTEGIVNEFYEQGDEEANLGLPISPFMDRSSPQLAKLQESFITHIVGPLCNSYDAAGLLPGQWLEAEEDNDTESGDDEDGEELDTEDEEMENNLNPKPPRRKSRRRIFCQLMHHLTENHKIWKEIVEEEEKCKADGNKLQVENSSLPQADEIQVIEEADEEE
human full length PDE3A, sequence (Q14432 whole entry): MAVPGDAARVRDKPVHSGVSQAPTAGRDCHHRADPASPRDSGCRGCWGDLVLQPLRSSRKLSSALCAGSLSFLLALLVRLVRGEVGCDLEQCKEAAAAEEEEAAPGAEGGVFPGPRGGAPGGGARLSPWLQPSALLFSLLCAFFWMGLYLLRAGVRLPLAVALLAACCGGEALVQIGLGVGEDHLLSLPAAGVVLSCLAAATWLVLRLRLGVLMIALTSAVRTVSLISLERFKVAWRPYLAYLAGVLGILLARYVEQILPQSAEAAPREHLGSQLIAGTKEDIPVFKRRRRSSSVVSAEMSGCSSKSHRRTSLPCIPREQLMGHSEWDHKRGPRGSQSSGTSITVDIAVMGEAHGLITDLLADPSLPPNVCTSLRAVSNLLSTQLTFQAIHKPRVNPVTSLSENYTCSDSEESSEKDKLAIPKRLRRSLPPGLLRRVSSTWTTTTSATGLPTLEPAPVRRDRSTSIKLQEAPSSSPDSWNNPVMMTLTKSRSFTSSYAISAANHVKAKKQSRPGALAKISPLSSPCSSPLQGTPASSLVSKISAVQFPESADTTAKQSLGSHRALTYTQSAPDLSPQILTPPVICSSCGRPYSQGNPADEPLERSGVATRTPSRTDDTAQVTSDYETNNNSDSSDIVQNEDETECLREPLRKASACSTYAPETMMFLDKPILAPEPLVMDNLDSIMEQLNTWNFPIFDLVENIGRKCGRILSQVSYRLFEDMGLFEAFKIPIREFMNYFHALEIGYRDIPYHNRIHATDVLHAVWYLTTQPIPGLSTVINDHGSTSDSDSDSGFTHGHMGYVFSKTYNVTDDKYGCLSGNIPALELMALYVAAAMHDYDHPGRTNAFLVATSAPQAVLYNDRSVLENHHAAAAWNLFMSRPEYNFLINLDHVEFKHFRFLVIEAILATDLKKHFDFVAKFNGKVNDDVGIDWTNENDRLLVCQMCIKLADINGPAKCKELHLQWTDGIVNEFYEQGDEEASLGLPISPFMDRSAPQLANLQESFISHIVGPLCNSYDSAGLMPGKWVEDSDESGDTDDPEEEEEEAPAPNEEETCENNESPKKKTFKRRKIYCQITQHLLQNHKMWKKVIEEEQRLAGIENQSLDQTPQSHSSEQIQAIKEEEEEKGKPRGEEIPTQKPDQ

Compound	IC50 (HeLa cells)	IC50 (SK-MEL-3 cells)	IC50 (human full length PDE3B)	IC50 (human full length PDE3A)
Cn1c(C#N)ccc1-c1ccc(C2=NNC(=O)OC2)cc1C(F)(F)F [Example 50, 1-Methyl-5-[4-(2-oxo-3,6-dihydro-2H-1,3,4-oxadiazin-5-yl)-2-(trifluoromethyl)phenyl]-1H-pyrrole-2-carbonitrile]	81 nM	19800 nM	210 nM	260 nM
O=C1NN=C(c2ccc(-c3ccc(C(F)(F)F)cc3)c(C(F)(F)F)c2)CO1 [Example 51, 5-[2,4′-Bis(trifluoromethyl)biphenyl-4-yl]-3,6-dihydro-2H-1,3,4-oxadiazin-2-one]	30 nM	49 nM	> 1000 nM	> 1000 nM
O=C1NN=C(c2ccc(-c3cc(F)c(F)c(F)c3)c(C(F)(F)F)c2)CO1 [Example 58, 5-[3′,4′,5′-Trifluoro-2-(trifluoromethyl)biphenyl-4-yl]-3,6-dihydro-2H-1,3,4-oxadiazin-2-one]	40 nM	64 nM	570 nM	310 nM
O=C1NN=C(c2ccc(-c3cc(F)ccc3F)c(C(F)(F)F)c2)CO1 [Example 59, 5-[2′,5′-Difluoro-2-(trifluoromethyl)biphenyl-4-yl]-3,6-dihydro-2H-1,3,4-oxadiazin-2-one]	18 nM	38 nM	250 nM	150 nM
O=C1NN=C(c2ccc(-c3ccc4cc[nH]c4c3)c(C(F)(F)F)c2)CO1 [Example 62, 5-[4-(1H-Indol-6-yl)-3-(trifluoromethyl)phenyl]-3,6-dihydro-2H-1,3,4-oxadiazin-2-one]	6 nM	14 nM	180 nM	85 nM
O=C1NN=C(c2ccc(N3CCOCC3)c(C(F)(F)F)c2)CO1 [Example 65, 5-[4-(Morpholin-4-yl)-3-(trifluoromethyl)phenyl]-3,6-dihydro-2H-1,3,4-oxadiazin-2-one]	2 nM	3 nM	30 nM	25 nM
CCCCNc1ccc(C2=NNC(=O)OC2)cc1C(F)(F)F [Example 66, 5-[4-(Butylamino)-3-(trifluoromethyl)phenyl]-3,6-dihydro-2H-1,3,4-oxadiazin-2-one]	2 nM	3 nM	95 nM	65 nM
Cn1cc(-c2ccc(C3=NNC(=O)OC3)cc2OC(F)(F)F)cn1 [Example 68, 5-[4-(1-Methyl-1H-pyrazol-4-yl)-3-(trifluoromethoxy)phenyl]-3,6-dihydro-2H-1,3,4-oxadiazin-2-one]	4 nM	6 nM	152 nM	81 nM
CCCCCNc1ccc(C2=NNC(=O)OC2)cc1C(F)(F)F [Example 74, 5-[4-(Pentylamino)-3-(trifluoromethyl)phenyl]-3,6-dihydro-2H-1,3,4-oxadiazin-2-one]	11 nM	23 nM	100 nM	42 nM
Cn1ncc2ccc(-c3ccc(C4=NNC(=O)OC4)cc3C(F)(F)F)cc21 [Example 75, 5-[4-(1-Methyl-1H-indazol-6-yl)-3-(trifluoromethyl)phenyl]-3,6-dihydro-2H-1,3,4-oxadiazin-2-one]	22 nM	44 nM	78 nM	31 nM
Cc1cnccc1-c1ccc(C2=NNC(=O)OC2)cc1F [Example 78, 5-[3-Fluoro-4-(3-methylpyridin-4-yl)phenyl]-3,6-dihydro-2H-1,3,4-oxadiazin-2-one]	10 nM	21 nM	48 nM	29 nM
Nc1ccc(-c2ccc(C3=NNC(=O)OC3)cc2F)cc1 [Example 80, 5-(4′-Amino-2-fluorobiphenyl-4-yl)-3,6-dihydro-2H-1,3,4-oxadiazin-2-one]	2 nM	6 nM	87 nM	34 nM

The remaining lines, values ahead:

IC50 (HeLa cells)	IC50 (SK-MEL-3 cells)	IC50 (human full length PDE3B)	IC50 (human full length PDE3A)	Compound
6 nM	13 nM	190 nM	230 nM	O=C1NN=C(c2ccc(-c3cnsc3)c(C(F)(F)F)c2)CO1 [Example 49, 5-[4-(1,2-Thiazol-4-yl)-3-(trifluoromethyl)phenyl]-3,6-dihydro-2H-1,3,4-oxadiazin-2-one]
48 nM	> 100 nM	30 nM	65 nM	Cc1nn(C)cc1-c1ccc(C2=NNC(=O)OC2)cc1C(F)(F)F [Example 52, 5-[4-(1,3-Dimethyl-1H-pyrazol-4-yl)-3-(trifluoromethyl)phenyl]-3,6-dihydro-2H-1,3,4-oxadiazin-2-one]
36 nM	13000 nM	390 nM	580 nM	COc1nc(C)ccc1-c1ccc(C2=NNC(=O)OC2)cc1C(F)(F)F [Example 53, 5-[4-(2-Methoxy-6-methylpyridin-3-yl)-3-(trifluoromethyl)phenyl]-3,6-dihydro-2H-1,3,4-oxadiazin-2-one]
1 nM	3 nM	89 nM	100 nM	Cc1ncc(-c2ccc(C3=NNC(=O)OC3)cc2C(F)(F)F)s1 [Example 54, 5-[4-(2-Methyl-1,3-thiazol-5-yl)-3-(trifluoromethyl)phenyl]-3,6-dihydro-2H-1,3,4-oxadiazin-2-one]
7 nM	14 nM	250 nM	280 nM	CNc1ccc(-c2ccc(C3=NNC(=O)OC3)cc2C(F)(F)F)cc1 [Example 55, 5-[4′-(Methylamino)-2-(trifluoromethyl)biphenyl-4-yl]-3,6-dihydro-2H-1,3,4-oxadiazin-2-one]
5 nM	10 nM	80 nM	180 nM	Nc1cc(-c2ccc(C3=NNC(=O)OC3)cc2C(F)(F)F)ccc1F [Example 56, 5-[3′-Amino-4′-fluoro-2-(trifluoromethyl)biphenyl-4-yl]-3,6-dihydro-2H-1,3,4-oxadiazin-2-one]
13 nM	20 nM	510 nM	270 nM	Nc1cc(-c2ccc(C3=NNC(=O)OC3)cc2OC(F)(F)F)ccc1F [Example 60, 5-[3′-Amino-4′-fluoro-2-(trifluoromethoxy)biphenyl-4-yl]-3,6-dihydro-2H-1,3,4-oxadiazin-2-one]
10 nM	16 nM	320 nM	230 nM	O=C1NN=C(c2ccc(-c3ccc(F)c(F)c3)c(C(F)(F)F)c2)CO1 [Example 61, 5-[3′,4′-Difluoro-2-(trifluoromethyl)biphenyl-4-yl]-3,6-dihydro-2H-1,3,4-oxadiazin-2-one]
1 nM	3 nM	33 nM	31 nM	CC(C)=Cc1ccc(C2=NNC(=O)OC2)cc1C(F)(F)F [Example 63, 5-[4-(2-Methylprop-1-en-1-yl)-3-(trifluoromethyl)phenyl]-3,6-dihydro-2H-1,3,4-oxadiazin-2-one]
17 nM	41 nM	193 nM	221 nM	O=C1NN=C(c2ccc(-c3cccc(F)c3F)c(C(F)(F)F)c2)CO1 [Example 64, 5-[2′,3′-Difluoro-2-(trifluoromethyl)biphenyl-4-yl]-3,6-dihydro-2H-1,3,4-oxadiazin-2-one]
3 nM	5 nM	63 nM	47 nM	CCNc1ccc(C2=NNC(=O)OC2)cc1C(F)(F)F [Example 67, 5-[4-(Ethylamino)-3-(trifluoromethyl)phenyl]-3,6-dihydro-2H-1,3,4-oxadiazin-2-one]
1 nM	1 nM	47 nM	31 nM	CCCNc1ccc(C2=NNC(=O)OC2)cc1C(F)(F)F [Example 69, 5-[4-(Propylamino)-3-(trifluoromethyl)phenyl]-3,6-dihydro-2H-1,3,4-oxadiazin-2-one]
15 nM	29 nM	170 nM	75 nM	Cc1ccc(-c2ccc(C3=NNC(=O)OC3)cc2OC(F)(F)F)cn1 [Example 70, 5-[4-(6-Methylpyridin-3-yl)-3-(trifluoromethoxy)phenyl]-3,6-dihydro-2H-1,3,4-oxadiazin-2-one]
2 nM	5 nM	180 nM	74 nM	O=C1NN=C(c2ccc(N3CCC3)c(C(F)(F)F)c2)CO1 [Example 72, 5-[4-(Azetidin-1-yl)-3-(trifluoromethyl)phenyl]-3,6-dihydro-2H-1,3,4-oxadiazin-2-one]
25 nM	46 nM	41 nM	18 nM	Cn1cnc2ccc(-c3ccc(C4=NNC(=O)OC4)cc3C(F)(F)F)cc21 [Example 73, 5-[4-(1-Methyl-1H-benzimidazol-6-yl)-3-(trifluoromethyl)phenyl]-3,6-dihydro-2H-1,3,4-oxadiazin-2-one]
8 nM	16 nM	83 nM	33 nM	O=C1NN=C(c2ccc(-c3ccc(F)nc3)c(F)c2)CO1 [Example 77, 5-[3-Fluoro-4-(6-fluoropyridin-3-yl)phenyl]-3,6-dihydro-2H-1,3,4-oxadiazin-2-one]
12 nM	25 nM	71 nM	29 nM	Cc1cc(-c2ccc(C3=NNC(=O)OC3)cc2F)ccn1 [Example 79, 5-[3-Fluoro-4-(2-methylpyridin-4-yl)phenyl]-3,6-dihydro-2H-1,3,4-oxadiazin-2-one]
